For test [1], the target named is T1, human recombinant D1 receptor (Homo sapiens, UniProt P21728).
T1 construct: expressed in transfected cells; host or cells: HEK293
Briefly: D1 antagonistic activity test (LANCE cAMP, antagonism of dopamine-induced cAMP production in HEK293 cells). The conditions noted are these: HEK293 cells expressing human recombinant D1 receptor; test concentration 0.1 nM to 10000 nM; read-out: D1 Antagonistic Activity (IC50, nmol/L). The format is cell-based. The method, then: • 1) D1 antagonistic activity test
The D1 antagonism of the compound was evaluated by testing the antagonistic action of the compounds against dopamine on the induction of cAMP production in HEK293 cells. The cAMP concentration test was performed according to the method described in the kit instructions. The test concentration of the compound was 0.1 nM to 10000 nM. SCH23390 was used as a positive control. The IC50 was calculated by Excelfit software.

In test [2] the target is T2, human recombinant D2 receptor (Homo sapiens, UniProt P14416).
T2 construct: expressed in transfected cells; host or cells: HEK293
T2 sequence (P14416 whole entry): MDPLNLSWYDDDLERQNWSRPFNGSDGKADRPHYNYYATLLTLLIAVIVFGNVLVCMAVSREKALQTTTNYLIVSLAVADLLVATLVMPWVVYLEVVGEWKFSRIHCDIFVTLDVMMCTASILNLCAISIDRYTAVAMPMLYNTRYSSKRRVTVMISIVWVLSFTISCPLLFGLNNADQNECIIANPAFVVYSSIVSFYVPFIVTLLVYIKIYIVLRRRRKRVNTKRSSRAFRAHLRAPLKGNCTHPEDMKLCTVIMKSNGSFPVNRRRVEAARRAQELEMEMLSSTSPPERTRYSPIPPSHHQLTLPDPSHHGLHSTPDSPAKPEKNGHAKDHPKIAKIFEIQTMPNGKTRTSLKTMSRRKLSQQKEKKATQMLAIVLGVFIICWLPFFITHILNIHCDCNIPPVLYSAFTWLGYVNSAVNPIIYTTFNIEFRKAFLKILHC
Description: D2 antagonistic activity test (LANCE cAMP, antagonism of dopamine inhibition of cAMP production in HEK293 cells). The format is cell-based. The conditions noted are these: HEK293 cells expressing human recombinant D2 receptor; test concentration 0.1 nM to 10000 nM; read-out: D2 Antagonistic Activity (IC50, nmol/L). As to the method: LANCE™ cAMP 384 Kit (PerkinElmer, USA) was used to test the antagonism of the compound against the D1 receptor using the HEK293 cells expressing human recombinant D1 receptor. The D1 antagonism of the compound was evaluated by testing the antagonistic action of the compounds against dopamine on the induction of cAMP production in HEK293 cells. The cAMP concentration test was performed according to the method described in the kit instructions. The test concentration of the compound was 0.1 nM to 10000 nM. SCH23390 was used as a positive control. The IC50 was calculated by Excelfit software. The test results of some compounds were shown in Table 1. • 2) D2 antagonistic activity test LANCE™ cAMP 384 Kit (PerkinElmer, USA) was used to test the antagonism of the compound against the D2 receptor using the HEK293 cells expressing human recombinant D2 receptor. The D2 antagonism of the compound was evaluated by testing the antagonistic action of the compounds against dopamine on the inhibition of cAMP production in HEK293 cells. The cAMP concentration test was performed according to the method described in the kit instructions. The test concentration of the compound was 0.1 nM to 10000 nM. Risperidone was used as a positive control. The IC50 was calculated by Excelfit software. The test results of some compounds were shown in Table 1 (ND means the test was not performed).

In test [3] the test system is PCP-induced high spontaneous activity in mice. Briefly: PCP-induced high spontaneous activity test in mice. The format is in vivo, Male ICR mice. The conditions noted are these: dose by gavage that significantly reduces PCP (7 mg/kg ip) induced high spontaneous activity of mice vs model group. As to the method:
PCP (phencylidine) was dissolved in physiological saline to prepare a 7 mg/kg solution. The test compound was formulated with a 0.5% CMC-Na solution to a solution with suitable concentration, ready-to-use. Male ICR mice were 18-22 g. Mice were randomly divided into a solvent control group, a model control group, a positive control group, and each test drug group during the test. There were 8 mice in each group. Mice in each group were given each test drug by gavage. 45 minutes after the test drug was administered, mice were injected with a PCP (7 mg/kg) solution intraperitoneally. The spontaneous, open field video analysis system was used to record the mouse movement trajectory within 45 min after administration of test drug or saline, and then the mouse movement trajectory within 75 min after PCP administration. Spontaneous, open field video analysis system was used to analyze the mouse's movement trajectory, and the total distance of the movement of the mice in each group was counted. The result was expressed as mean±SD. Results were analyzed by one-way analysis of variance.

pIC50: −log10 of the molar value. Structures can show the parent of a compound that is named as a salt.

T1 sequence (P21728 whole entry): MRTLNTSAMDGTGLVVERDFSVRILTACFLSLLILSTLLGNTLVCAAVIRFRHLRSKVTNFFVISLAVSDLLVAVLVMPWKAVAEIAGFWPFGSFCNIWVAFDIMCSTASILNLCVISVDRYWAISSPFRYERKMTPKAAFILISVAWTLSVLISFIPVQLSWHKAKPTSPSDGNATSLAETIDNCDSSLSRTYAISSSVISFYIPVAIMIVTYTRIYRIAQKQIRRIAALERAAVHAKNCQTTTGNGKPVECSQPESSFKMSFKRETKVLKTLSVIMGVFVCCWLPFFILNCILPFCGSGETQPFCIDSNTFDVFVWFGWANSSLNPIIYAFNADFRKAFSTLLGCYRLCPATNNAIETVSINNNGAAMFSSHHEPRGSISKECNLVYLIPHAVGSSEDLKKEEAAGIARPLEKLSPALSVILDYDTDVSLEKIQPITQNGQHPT

Consider `COc1cc2c(cc1C)[C@@H]1Cc3ccc(OC)c(OC)c3CN1CC2` [Example 1, (S)-2-methyl-3,9,10-trimethoxy-6,8,13,13a-tetrahydro-5H-dibenzo[a,g] quinolizine], for which the pIC50 is 7.46 in test [1] and 6.21 in test [2]. Further, the “Effective Dose” value in test [3] amounted to 20 mg/kg. For the compound `CCCc1cc2c(cc1OC)CCN1Cc3c(ccc(OC)c3OC)C[C@@H]21` [Example 2, (S)-2-n-propyl-3,9,10-trimethoxy-6,8,13,13a-tetrahydro-5H-dibenzo [a,g] quinolizine], the pIC50 in test [2] is 6.55. Also, the “Effective Dose” value in test [3] is on record as 20 mg/kg.

As to `COc1cc2c(cc1C#N)[C@@H]1Cc3ccc(OC)c(OC)c3CN1CC2` [Example 4, (S)-2-cyano-3,9,10-trimethoxy-6,8,13,13a-tetrahydro-5H-dibenzo [a,g] quinolizine], the pIC50 in test [1] was 6.51; in test [2], 6.02. The corresponding values for `COc1cc2c(cc1C=O)[C@@H]1Cc3ccc(OC)c(OC)c3CN1CC2` [Example 6, (S)-2-formyl-3,9,10-trimethoxy-6,8,13,13a-tetrahydro-5H-dibenzo[a,g] quinolizine] are 7.31 and 6.68. Regarding `COc1cc2c(cc1CO)[C@@H]1Cc3ccc(OC)c(OC)c3CN1CC2` [Example 7, (S)-2-hydroxymethyl-3,9,10-trimethoxy-6,8,13,13a-tetrahydro-5H-dibenzo[a,g] quinolizine], the pIC50 in test [1] was 7.21; in test [2] it was 6.11. Moreover, in test [3], the “Effective Dose” value came to 10 mg/kg. Take `COc1cc2c(cc1N)[C@@H]1Cc3ccc(OC)c(OC)c3CN1CC2` [Example 13, (S)-2-amino-3,9,10-trimethoxy-6,8,13,13a-tetrahydro-5H-dibenzo [a,g] quinolizine hydrochloride]: the pIC50 in test [1] was 6.85; in test [2], 6.55. In addition, the “Effective Dose” value in test [3] is given as 10 mg/kg. For `COc1cc2c(cc1Br)[C@@H]1Cc3ccc(OC)c(OC)c3CN1CC2` [Example 15, (S)-2-bromo-3,9,10-tritmethoxy-6,8,13,13a-tetrahydro-5H-dibenzo [a,g] quinolizine], the pIC50 in test [1] was 6.92; in test [2] it was 6.26. On to `C=Cc1cc2c(cc1OC)CCN1Cc3c(ccc(OC)c3OC)C[C@@H]21` [Example 17, (S)-2-vinyl-3,9,10-trimethoxy-6,8,13,13a-tetrahydro-5H-dibenzo [a,g] quinolizine], for which the figures for the pIC50 in test [1] and in test [2] were 6.62 and 6.82, respectively. In test [3], the “Effective Dose” value was 20 mg/kg.

For the compound `COc1cc2c(cc1CCO)[C@@H]1Cc3ccc(OC)c(OC)c3CN1CC2` [Example 18, (S)-2-hydroxyethyl-3,9,10-trimethoxy-6,8,13,13a-tetrahydro-5H-dibenzo[a,g] quinolizine], the pIC50 in test [1] was 6.41; in test [2], 6.21. Also, the “Effective Dose” value in test [3] was found to be 20 mg/kg. In the case of `COc1cc2c(cc1OC)[C@@H]1Cc3ccc(OC)c(C#N)c3CN1CC2` [Example 19, (S)-2,3,10-trimethoxy-9-cyano-6,8,13,13a-tetrahydro-5H-dibenzo [a,g] quinolizine], in test [1], the pIC50 is 5.89. Further, the “Effective Dose” value in test [3] worked out at 20 mg/kg. In the case of `COc1cc2c(cc1OC)[C@@H]1Cc3ccc(OC)c(C=O)c3CN1CC2` [Example 24, (S)-2,3,10-trimethoxy-9-formyl-6,8,13,13a-tetrahydro-5H-dibenzo [a,g] quinolizine], the pIC50 in test [1] was 5.89.

For `COc1cc2c(cc1OC)[C@@H]1Cc3ccc(OC)c(CO)c3CN1CC2` [Example 25, (S)-2,3,10-trimethoxy-9-hydroxymethyl-6,8,13,13a-tetrahydro-5H-dibenzo[a,g] quinolizine], the results for the pIC50 in test [1] and in test [2] were 5.77 and 5.64, respectively. Also, the “Effective Dose” value in test [3] was 20 mg/kg.

With `COc1cc2c(cc1OC)[C@@H]1Cc3ccc(C)c(OC)c3CN1CC2` [Example 26, (S)-2,3,9-trimethoxy-10-methyl-6,8,13,13a-tetrahydro-5H-dibenzo [a,g] quinolizine], the pIC50 in test [2] was 6.03. For the compound `COc1cc2c(cc1OC)[C@@H]1Cc3ccc(C(N)=O)c(OC)c3CN1CC2` [Example 28, (S)-2,3,9-trimethoxy-10-carbamoyl-6,8,13,13a-tetrahydro-5H-dibenzo[a,g] quinolizine], in test [1], the pIC50 is 5.67.

Turning to `COc1cc2c(cc1OC)[C@@H]1Cc3ccc(C=O)c(OC)c3CN1CC2` [Example 29, (S)-2,3,9-trimethoxy-10-formyl-6,8,13,13a-tetrahydro-5H-dibenzo [a,g] quinolizine], the pIC50 in test [2] is 5.60.

For the compound `COc1cc2c(cc1OC)[C@@H]1Cc3ccc(CO)c(OC)c3CN1CC2` [Example 30, (S)-2,3,9-trimethoxy-10-hydroxymethyl-6,8,13,13a-tetrahydro-5H-dibenzo[a,g] quinolizine], the pIC50 in test [1] was 5.97; in test [2], 6.29.

Regarding `COc1cc2c(cc1OC)[C@@H]1Cc3ccc(CNC(C)=O)c(OC)c3CN1CC2` [Example 32, (S)-2,3,9-trimethoxy-10-acetaminomethyl-6,8,13,13a-tetrahydro-5H-dibenzo[a,g] quinolizine], the pIC50 in test [2] was 6.18. Turning to `COc1cc2c(cc1NC(C)=O)[C@@H]1Cc3ccc(NC(C)=O)c(OC)c3CN1CC2` [Example 34, (S)-2,10-di(acetamino)-3,9-dimethoxy-6,8,13,13a-tetrahydro-5H-dibenzo[a,g] quinolizine], the “Effective Dose” value in test [3] is 20 mg/kg.

As to `COc1ccc2c(c1OC)CN1CCc3cc(OC)c4[nH]c(=S)[nH]c4c3[C@@H]1C2` [Example 41, (S)-4,10,11-trimethoxy-3,6,7,9,14,14a-Hexahydroimidazo[4,5-h] isoquinolino [3,2-a]isoquinoline-2(1H)-thione], the pIC50 in test [2] was 7.70. In test [3], the “Effective Dose” value was 3 mg/kg. `COc1ccc2c(c1OC)CN1CCc3cc(OC)c4nn[nH]c4c3[C@@H]1C2` [Example 43, (S)-4,10,11-trimethoxy-1,6,7,9,14,14a-hexahydroisoquinolino[3,2-a] [1,2,3]triazolo[4,5-h]isoquinoline]: the pIC50 in test [2] is 7.27. `COc1ccc2c(c1OC)CN1CCc3cc4nc[nH]c4cc3C1C2` (stereo not drawn) [Example 44, 9,10-Dimethoxy-1,5,6,8,13,13a-hexahydroimidazo[4,5-g]isoquinolino [3,2-a]isoquinoline]: the pIC50 was 6.17 in test [1] and 6.86 in test [2]. For the compound `COc1ccc2c(c1OC)CN1CCc3cc4ncoc4cc3C1C2` (stereo not drawn) [Example 45, 9,10-Dimethoxy-6,8,13,13a-tetrahydro-5H-isoquinolino[3,2-a] oxazolo[4,5-g]isoquinoline], the pIC50 in test [1] is 6.94. As for `COc1ccc2c(c1OC)CN1CCc3ccc4oc(=O)[nH]c4c3C1C2` (stereo not drawn) [Example 49, 10,11-Dimethoxy-6,7,14,14a-tetrahydro-1H-isoquinolino[3,2-a] oxazolo[5,4-h] isoquinoline-2 (9H)-one], in test [1], the pIC50 was 6.66. For the same compound, the “Effective Dose” value in test [3] is 10 mg/kg.

Regarding `COc1ccc2c(c1OC)CN1CCc3ccc4c(c3C1C2)NC(=O)CO4` (stereo not drawn) [Example 50, 11,12-Dimethoxy-3,7,8,10,15,15a-hexahydroisoquinolino[3,2-a][1,4] oxazino [2,3-h]isoquinoline-2(1H)-one], in test [1], the pIC50 was 6.07. Further, in test [3], the “Effective Dose” value was 10 mg/kg. `COc1cc2c(cc1OC(F)F)[C@@H]1Cc3ccc(OC)c(OC)c3CN1CC2` [Example 51, (S)-2-(difluoromethoxy)-3,9,10-trimethoxy-6,8,13,13a-tetrahydro-5H-dibenzo[a,g] quinolizine]: the pIC50 in test [2] is 6.41. In the case of `COc1cc2c(cc1OCCO)[C@@H]1Cc3ccc(OCCO)c(OC)c3CN1CC2` [Example 55, (S)-2,10-di(hydroxyethoxy)-3,9-dimethoxy-6,8,13,13a-tetrahydro-5H-dibenzo [a,g] quinolizine], the pIC50 in test [1] was 6.35.

(Values after US11731965B2, “Tetrahydroprotoberberine compound, preparation method therefor and uses thereof, and pharmaceutical composition” (SHANGHAI INSTITUTE OF MATERIA MEDICA, CHINESE ACADEMY OF …, priority 2017, dated 2023).)
